The target of assay [1] is T1, Cannabinoid receptor 2 (Homo sapiens, UniProt P34972). Kind of assay: Displacement of [3H]CP-55940 from human CB2 receptor expressed in CHO cells. The format is cell-based. For orientation: Displacement assays read how much labelled ligand stays bound in the presence of the test substance.
The target of a further assay is Cannabinoid receptor 1 (Homo sapiens, UniProt P21554). Kind of assay: Displacement of [3H]CP-55940 from human CB1 receptor expressed in CHO cells. The format is cell-based.
Chain of Cannabinoid receptor 1 (P21554 whole entry): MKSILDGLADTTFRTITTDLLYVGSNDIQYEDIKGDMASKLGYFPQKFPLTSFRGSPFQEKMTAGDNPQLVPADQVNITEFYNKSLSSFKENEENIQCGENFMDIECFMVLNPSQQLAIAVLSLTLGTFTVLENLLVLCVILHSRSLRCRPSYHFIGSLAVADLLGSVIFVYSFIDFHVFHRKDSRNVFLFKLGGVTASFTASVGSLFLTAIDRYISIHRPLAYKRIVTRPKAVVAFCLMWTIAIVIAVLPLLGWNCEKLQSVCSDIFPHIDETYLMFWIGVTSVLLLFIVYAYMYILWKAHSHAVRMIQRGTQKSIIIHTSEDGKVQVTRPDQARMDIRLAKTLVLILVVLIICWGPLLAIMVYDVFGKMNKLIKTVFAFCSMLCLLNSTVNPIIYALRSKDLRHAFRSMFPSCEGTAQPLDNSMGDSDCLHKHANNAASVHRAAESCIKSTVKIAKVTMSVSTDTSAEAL
Assay [2] deals with T1, Cannabinoid receptor 2. Kind of assay: Agonist activity at human CB2 receptor expressed in CHO cells by [35S]GTP-gamma-S binding assay. The format is functional, cell-based. In general terms: GTPγS is a poorly hydrolysed GTP analogue; its binding reports G protein activation.
For assay [3], the target named is T1, Cannabinoid receptor 2. Kind of assay: Agonist activity at human CB2 receptor expressed in CHO cells by [35S]GTP-gamma-S binding assay relative to CP-55940. It is filed as functional, cell-based.
The species named for another assay is Homo sapiens. Kind of assay: Selectivity for human CB2 receptor over human CB1 receptor.

The text below walks through data of ChEMBL document CHEMBL1149669, “Sulfonamide derivatives as new potent and selective CB2 cannabinoid receptor agonists” (Bioorg Med Chem Lett, 2007).

A word on the IC50: it is the concentration that gives 50% inhibition. By EC50 is commonly meant the concentration giving half of the maximal effect. Low values mean a more potent agent, high ones a less potent agent. In general, Emax refers to the size of the effect at its maximum, as opposed to the concentration needed.

Molecules are shown by their SMILES.

T1 sequence (P34972 whole entry): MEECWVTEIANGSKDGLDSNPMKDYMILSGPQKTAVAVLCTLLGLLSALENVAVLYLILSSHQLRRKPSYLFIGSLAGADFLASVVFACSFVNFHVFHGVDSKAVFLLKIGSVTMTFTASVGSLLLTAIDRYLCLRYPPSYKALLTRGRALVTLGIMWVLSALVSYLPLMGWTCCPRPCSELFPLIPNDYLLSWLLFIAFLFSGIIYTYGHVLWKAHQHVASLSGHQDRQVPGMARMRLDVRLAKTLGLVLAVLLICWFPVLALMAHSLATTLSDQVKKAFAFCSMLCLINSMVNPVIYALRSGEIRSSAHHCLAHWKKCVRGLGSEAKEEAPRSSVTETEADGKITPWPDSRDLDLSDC

Molecule `CC(C)=CCn1c(C)c(C(C)(C)C)s/c1=N\S(=O)(=O)c1ccccc1` returned an IC50 at Cannabinoid receptor 2 [1] of 170 nM.
The molecule `C=CCn1c(C)c(C(C)(C)C)s/c1=N\S(=O)(=O)c1ccccc1` gave an IC50 on Cannabinoid receptor 2 [1] of 75 nM.
Still for that read-out and setting: with `C#CCn1c(C)c(C(C)(C)C)s/c1=N\S(=O)(=O)c1ccccc1` the figure was 210 nM.
As for `Cc1c(C(C)(C)C)s/c(=N\S(=O)(=O)c2ccccc2)n1C`, the figures for the concentration for half-maximal inhibition (IC50) on Cannabinoid receptor 2 [1] and at Cannabinoid receptor 1 were 340 nM and over 50000 nM, respectively. Moreover, a half-maximal effect on Cannabinoid receptor 2 [2] (EC50) was put at 110 nM. Moreover, on Cannabinoid receptor 2 [3], the maximal effect (Emax) amounted to 110%.
`Cc1c(C(C)(C)C)s/c(=N\S(=O)(=O)c2ccccc2)n1CC1CC1`: the IC50 at Cannabinoid receptor 2 [1] worked out at 65 nM.
Still for that read-out and setting: with `Cc1c(C(C)(C)C)s/c(=N\S(=O)(=O)c2ccc3ccccc3c2)n1CC1CC1` the figure was 490 nM.
With `Cc1c(C(C)(C)C)s/c(=N\S(=O)(=O)c2cccc3ccccc23)n1CC1CC1`, the figures for the IC50 on Cannabinoid receptor 2 [1] and on Cannabinoid receptor 1 were 16 nM and 1700 nM, respectively. The molecule also came in with an EC50 at Cannabinoid receptor 2 [2] of 7.2 nM. In addition, the Emax on Cannabinoid receptor 2 [3] was 100%. In the assay listed under Homo sapiens, the Ratio IC50 is 106.
